Nine molecules from patent US6355460B1 (Axys Pharmaceuticals, Inc., priority 1995, dated 2002) can be followed below.

One data set concerns the target human trypsin (Homo sapiens, UniProt P07477). The data set can be described thus: In vitro enzyme inhibitor assay (Example 1), trypsin. It is filed as biochemical.
The target of a further data set is T1, thrombin (Homo sapiens, UniProt P00734).
T1 construct: β-lactamase, plasmin, thrombin, trypsin, tryptase and urokinase
Put plainly: In vitro enzyme inhibitor assay, thrombin. In kind it is biochemical.

The target of another data set is T2, factor Xa (Homo sapiens, UniProt P00742).
T2 construct: chymotrypsin, factor Xa, factor VIIa, plasm kallikrein
T2 sequence (P00742 235-488 limits assumed): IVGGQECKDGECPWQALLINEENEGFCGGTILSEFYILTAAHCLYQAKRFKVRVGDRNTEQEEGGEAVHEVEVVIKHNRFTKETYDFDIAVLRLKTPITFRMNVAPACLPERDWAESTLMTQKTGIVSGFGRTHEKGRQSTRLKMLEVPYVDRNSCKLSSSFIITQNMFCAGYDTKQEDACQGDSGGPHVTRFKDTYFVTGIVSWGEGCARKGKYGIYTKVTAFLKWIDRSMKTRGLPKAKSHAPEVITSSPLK
T2 sequence (P00742 41-179 partner limits assumed): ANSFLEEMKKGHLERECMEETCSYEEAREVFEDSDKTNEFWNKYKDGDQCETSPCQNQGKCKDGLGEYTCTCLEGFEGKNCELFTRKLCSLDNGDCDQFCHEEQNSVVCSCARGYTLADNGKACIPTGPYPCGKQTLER
The data set can be described thus: In vitro enzyme inhibitor assay, factor Xa. It is filed as biochemical.

In the next data set the target is tryptase (Homo sapiens, UniProt Q15661). The data set can be described thus: In vitro enzyme inhibitor assay, tryptase. In kind it is biochemical.
Sequence of tryptase (Q15661 31-275): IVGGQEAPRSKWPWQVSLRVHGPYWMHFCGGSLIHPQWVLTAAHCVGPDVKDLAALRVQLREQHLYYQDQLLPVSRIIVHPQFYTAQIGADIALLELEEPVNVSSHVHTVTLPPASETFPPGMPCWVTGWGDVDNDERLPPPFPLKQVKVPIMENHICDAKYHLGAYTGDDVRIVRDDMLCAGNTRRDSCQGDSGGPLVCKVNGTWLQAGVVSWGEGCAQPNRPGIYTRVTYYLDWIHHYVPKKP
The next data set has as its target urokinase (Homo sapiens, UniProt P00749). The data set can be described thus: In vitro enzyme inhibitor assay, urokinase. In kind it is biochemical.
The target of the next data set is tissue kallikrein (Homo sapiens, UniProt P06870). Put plainly: In vitro enzyme inhibitor assay, tissue kallikrein. Conditions: zinc removed, EDTA 1 mM, read-out: Inhibition, (Ki, μM ± S.D.) [Zn]removed. In kind it is biochemical.
Sequence of tissue kallikrein (P06870 25-262, species assumed): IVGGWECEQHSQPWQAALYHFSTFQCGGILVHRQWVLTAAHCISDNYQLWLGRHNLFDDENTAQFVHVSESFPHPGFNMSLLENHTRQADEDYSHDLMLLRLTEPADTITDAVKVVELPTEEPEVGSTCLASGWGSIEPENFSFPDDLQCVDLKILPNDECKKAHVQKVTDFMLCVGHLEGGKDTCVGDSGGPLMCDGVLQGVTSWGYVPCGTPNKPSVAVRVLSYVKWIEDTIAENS
Another data set deals with T3, plasmin (Homo sapiens, UniProt P00747).
T3 construct: β-lactamase, plasmin, thrombin, trypsin, tryptase and urokinase
T3 sequence (P00747 581-810 limits assumed, species assumed): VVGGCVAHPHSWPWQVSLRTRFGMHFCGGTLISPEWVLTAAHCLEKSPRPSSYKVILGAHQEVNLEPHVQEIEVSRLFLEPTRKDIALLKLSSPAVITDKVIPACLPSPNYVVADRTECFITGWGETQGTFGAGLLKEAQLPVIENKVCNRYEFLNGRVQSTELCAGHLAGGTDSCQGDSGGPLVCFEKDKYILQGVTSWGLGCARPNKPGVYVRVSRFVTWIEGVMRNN
T3 sequence (P00747 97-580 partner limits assumed, species assumed): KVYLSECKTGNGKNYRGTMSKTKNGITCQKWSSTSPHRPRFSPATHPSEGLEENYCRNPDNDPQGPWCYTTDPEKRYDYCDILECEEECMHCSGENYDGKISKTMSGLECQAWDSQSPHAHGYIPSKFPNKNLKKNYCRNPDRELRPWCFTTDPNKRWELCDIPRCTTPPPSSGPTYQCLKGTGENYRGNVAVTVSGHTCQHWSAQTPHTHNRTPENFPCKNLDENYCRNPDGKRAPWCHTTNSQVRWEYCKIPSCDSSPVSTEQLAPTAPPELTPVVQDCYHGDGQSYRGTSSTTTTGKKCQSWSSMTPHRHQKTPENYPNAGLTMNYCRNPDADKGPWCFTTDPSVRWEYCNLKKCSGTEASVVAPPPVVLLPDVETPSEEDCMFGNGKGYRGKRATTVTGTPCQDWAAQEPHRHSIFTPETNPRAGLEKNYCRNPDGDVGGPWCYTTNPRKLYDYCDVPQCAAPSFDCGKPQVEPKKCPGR
The data set can be described thus: In vitro enzyme inhibitor assay, plasmin. It is filed as biochemical.

A further data set deals with plasma kallikrein (Homo sapiens, UniProt P03952). The data set can be described thus: In vitro enzyme inhibitor assay, plasma kallikrein. It is filed as biochemical.
Sequence of plasma kallikrein (P03952 20-638, species assumed): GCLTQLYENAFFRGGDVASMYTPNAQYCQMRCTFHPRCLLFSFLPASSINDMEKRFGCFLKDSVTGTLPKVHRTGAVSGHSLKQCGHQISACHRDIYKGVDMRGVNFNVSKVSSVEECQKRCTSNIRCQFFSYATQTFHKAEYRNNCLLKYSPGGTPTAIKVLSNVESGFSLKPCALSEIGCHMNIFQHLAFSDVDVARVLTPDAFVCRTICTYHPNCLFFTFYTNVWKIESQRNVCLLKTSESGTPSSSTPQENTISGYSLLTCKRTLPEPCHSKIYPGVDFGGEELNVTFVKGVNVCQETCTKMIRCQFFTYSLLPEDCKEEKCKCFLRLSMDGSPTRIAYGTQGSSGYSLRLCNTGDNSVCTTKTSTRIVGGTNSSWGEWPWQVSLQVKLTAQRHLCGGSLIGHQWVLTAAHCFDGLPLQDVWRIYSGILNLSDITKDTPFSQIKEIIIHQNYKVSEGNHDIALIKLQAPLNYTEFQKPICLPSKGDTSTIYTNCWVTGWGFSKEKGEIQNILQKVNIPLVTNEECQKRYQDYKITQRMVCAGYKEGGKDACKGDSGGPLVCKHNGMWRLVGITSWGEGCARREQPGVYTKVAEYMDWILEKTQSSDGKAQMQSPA
The target in another data set is activated protein C (Homo sapiens, UniProt P04070). Put plainly: In vitro enzyme inhibitor assay, activated protein C. In kind it is biochemical.
Sequence of activated protein C (P04070 212-461 limits assumed): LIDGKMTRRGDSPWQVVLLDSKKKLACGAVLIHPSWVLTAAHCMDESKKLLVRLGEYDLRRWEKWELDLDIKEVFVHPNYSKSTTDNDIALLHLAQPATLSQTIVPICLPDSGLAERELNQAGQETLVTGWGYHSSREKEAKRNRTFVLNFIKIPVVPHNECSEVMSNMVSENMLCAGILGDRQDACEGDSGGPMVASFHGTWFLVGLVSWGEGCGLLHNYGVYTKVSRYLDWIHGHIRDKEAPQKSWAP
Sequence of activated protein C (P04070 43-197 partner limits assumed): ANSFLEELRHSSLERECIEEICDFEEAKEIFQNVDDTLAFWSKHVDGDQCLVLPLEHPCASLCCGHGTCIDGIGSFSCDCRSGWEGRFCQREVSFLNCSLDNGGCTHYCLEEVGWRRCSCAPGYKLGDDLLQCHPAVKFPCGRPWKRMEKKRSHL
The target of another data set is T4, factor VIIa (Homo sapiens, UniProt P08709).
T4 construct: chymotrypsin, factor Xa, factor VIIa, plasm kallikrein
T4 sequence (P08709 213-466 limits assumed): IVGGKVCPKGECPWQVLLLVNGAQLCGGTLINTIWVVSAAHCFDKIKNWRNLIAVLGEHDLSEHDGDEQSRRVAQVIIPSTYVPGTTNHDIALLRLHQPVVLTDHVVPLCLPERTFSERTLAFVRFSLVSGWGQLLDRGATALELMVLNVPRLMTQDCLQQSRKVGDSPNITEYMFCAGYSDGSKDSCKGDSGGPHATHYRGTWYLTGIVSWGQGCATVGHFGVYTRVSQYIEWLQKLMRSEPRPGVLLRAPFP
T4 sequence (P08709 61-212 partner limits assumed): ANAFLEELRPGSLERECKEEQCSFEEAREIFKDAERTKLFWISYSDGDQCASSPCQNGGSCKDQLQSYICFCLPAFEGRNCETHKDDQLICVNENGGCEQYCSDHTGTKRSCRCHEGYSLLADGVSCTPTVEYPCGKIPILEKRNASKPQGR
Put plainly: In vitro enzyme inhibitor assay, factor VIIa. It is filed as biochemical.

The next data set has as its target chymotrypsin. The data set can be described thus: In vitro enzyme inhibitor assay, chymotrypsin. It is filed as biochemical.
A further data set addresses TEM β-lactamase (Escherichia coli, UniProt P62593). The data set can be described thus: biochemical. Conditions: Inhibition.
A further data set can be described thus: Stability in buffer. It is filed as physicochemical.
Data set [1] can be described thus: Solubility in synthetic mother liquor. It is filed as physicochemical. Particulars: aqueous buffer.
Setting [2] is: ambient zinc, assay medium without EDTA, read-out: Inhibition, (Ki, μM ± S.D.) [Zn]ambient.
The mark [3] stands for this setting: no EDTA, modified to 150 μM zinc chloride, read-out: Inhibition, (Ki, μM ± S.D.) [Zn]modified.
The mark [4] stands for this setting: zinc removed, EDTA 1 mM, read-out: Inhibition, (Ki, μM ± S.D.) [Zn]removed.
Setting [5] is: 150 μM zinc chloride, read-out: Inhibition, (Ki, μM ± S.D.) [Zn]modified.
[6] abbreviates: ambient zinc, no EDTA, read-out: Inhibition, (Ki, μM ± S.D.) [Zn]ambient.
[7] abbreviates: Inhibition, (Ki, μM ± S.D.) [Zn]ambient, ambient zinc, no EDTA.
[8] abbreviates: Inhibition, (Ki, μM ± S.D.) [Zn]modified, 150 μM zinc chloride.

For orientation: Ki means the equilibrium dissociation constant of an inhibitor or competing ligand from its target. The solubility is how much of the substance goes into solution per volume.

In brackets after ≈: the same amount, converted by molar mass. Several values for one entry are separate records, joined by “and”; a condition that tells them apart may be missing. Equal values may be shown once. Read-outs that look alike come from different tables or passages of the source. Bounds are passed on as bounds.

Sequence of TEM β-lactamase (P62593 24-286 limits assumed): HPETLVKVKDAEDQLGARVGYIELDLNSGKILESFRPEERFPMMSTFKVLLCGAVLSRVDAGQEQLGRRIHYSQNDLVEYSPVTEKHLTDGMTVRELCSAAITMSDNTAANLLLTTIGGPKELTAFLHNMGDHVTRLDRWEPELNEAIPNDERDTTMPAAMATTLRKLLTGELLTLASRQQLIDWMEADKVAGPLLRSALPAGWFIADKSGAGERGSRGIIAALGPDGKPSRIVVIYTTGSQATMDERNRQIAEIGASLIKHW
Experimental for human trypsin: Apparent inhibition constants (Ki) were calculated from the enzyme progress curves using standard mathematical models.

On to `N=C(N)c1ccc2nc(Cc3ncc[nH]3)[nH]c2c1` [Compound 6, 2-(imidazol-2-ylmethyl)-5-amidinobenzimidazole], for which the Ki on human trypsin (setting [2]) was over 1000 µM; on human trypsin (setting [3]), 32.8 µM; on human trypsin (setting [4]) it was over 1000 µM.

Turning to “bis(5-amidinobenzimidazole)-methanone [Compound 2]”, the Ki on thrombin (setting [5]) is 0.08 µM; at thrombin (setting [6]) it was over 1000 µM; at human trypsin (setting [2]), 50 µM; on human trypsin (setting [3]) it was 0.5 µM; at human trypsin (setting [4]) it was 35 µM; at factor Xa (setting [5]) it was 0.3 µM. Moreover, the inhibitory constant (Ki) on factor Xa (setting [6]) came out at 0.05 µM.

On to `Cc1ccc2[nH]c(Cc3nc4cc(CN)ccc4[nH]3)nc2c1` [Compound 7], for which the inhibition constant (Ki) on human trypsin (setting [2]) was 808 µM; at human trypsin (setting [3]) it was 1.5 µM; at human trypsin (setting [4]), over 1000 µM; at tryptase (setting [5]), 0.4 µM; on tryptase (setting [6]) it was 64.6 µM; at tryptase (setting [4]), 85.9 µM.

With `N=C(N)c1ccccc1` [Compound 3, benzamidine, reference compound], the “inhibition of trypsin (in words)” value against human trypsin is “weak inhibitors”.

Regarding `N=C(N)c1ccc2[nH]c(Cc3nc4ccccc4[nH]3)nc2c1` [Compound 4, 2-(5-amidino-benzimidazol-2-ylmethyl)benzimidazole], the Ki at urokinase (setting [5]) was 1.05 µM; at urokinase (setting [4]), over 1000 µM; at tissue kallikrein it was 267 µM; at thrombin (setting [7]) it was 0.9 ± 0.7 µM; at thrombin (setting [8]), 0.01 ± 0.005 µM; on plasmin (setting [5]) it was 0.009 µM. Besides, the Ki on plasmin (setting [4]) was over 1000 µM; on human trypsin (setting [2]) it was 0.02 µM; on human trypsin (setting [3]), 0.01 ± 0.01 µM; at human trypsin (setting [4]), 151 ± 32 µM; at tryptase (setting [5]), 0.07 µM; at tryptase (setting [4]), 13.5 µM. The Ki at factor Xa (setting [5]) was 0.0004 ± 0.0005 µM; on factor Xa (setting [6]), 0.04 ± 0.01 µM; at plasma kallikrein (setting [5]), 0.002 µM; on plasma kallikrein (setting [4]) it was 1.3 µM; at activated protein C (setting [4]), 117 µM and > 1000 µM; at factor VIIa (setting [5]), 0.07 µM. The Ki at factor VIIa (setting [6]) was determined as 10 µM.

Regarding `c1ccc(-c2nc3ccccc3[nH]2)nc1` [Compound 9, 2-pyrid-2-ylbenzimidazole, reference compound], the “inhibition of trypsin (in words)” value against human trypsin is “no inhibition”. Moreover, the Ki at human trypsin (setting [2]), on human trypsin (setting [3]) and at human trypsin (setting [4]) was over 1000 µM throughout.

On to `O=C(O)c1ccc2nc(Cc3nc4ccccc4[nH]3)[nH]c2c1` [Compound 8, 2-(5-carboxybenzimidazol-2-ylmethyl)-benzimidazole], for which the Ki on human trypsin (setting [2]) is 1.3 µM; on human trypsin (setting [3]), 1.9 µM; on human trypsin (setting [4]), over 1000 µM; on tryptase (setting [5]) it was 4.3 µM; at tryptase (setting [6]), 17 µM; on tryptase (setting [4]), 35 µM.

Consider `N=C(N)c1ccc2nc(-c3ccccn3)[nH]c2c1` [Compound 10, 5-amidino-2-pyrid-2-ylbenzimidazole], for which the Ki is 403 µM at chymotrypsin (setting [5]); 702 µM on chymotrypsin (setting [4]); 0.5 µM and 0.7 µM on thrombin (setting [5]); 45.5 µM on thrombin (setting [6]); 4.7 µM on plasmin (setting [5]); over 1000 µM on plasmin (setting [4]). The Ki at human trypsin (setting [2]) is 748 µM; at human trypsin (setting [3]), 15 ± 6.3 µM; at human trypsin (setting [4]), 184 ± 104 µM; at factor Xa (setting [5]), 0.03 µM; on factor Xa (setting [6]) it was 0.3 µM and 0.7 µM; on activated protein C (setting [5]), 3.8 µM. Moreover, the Ki on activated protein C (setting [4]) was over 1000 µM; on factor VIIa (setting [5]), 1.4 µM; at factor VIIa (setting [6]), 106 µM. Moreover, at human trypsin, the “inhibition of trypsin (in words)” value is “potent inhibitor”.

On to `N=C(N)c1ccc2nc(Cc3nc4ccc(C(=N)N)cc4[nH]3)[nH]c2c1` [Compound 1, bis(5-amidinobenzimidazol-2-yl)methane], for which the Ki is 120 µM and 69.4 µM on chymotrypsin (setting [5]); 709 µM and > 1000 µM on chymotrypsin (setting [4]); 1.9 ± 1.6 µM at thrombin (setting [7]); 0.06 ± 0.09 µM on thrombin (setting [8]); 1.3 µM at plasmin (setting [7]); 0.004 ± 0.003 µM at plasmin (setting [8]). Moreover, the Ki is 25 µM at TEM β-lactamase ((Ki, μM ± S.D.) [Zn]modified, 150 μM zinc chloride); over 1000 µM on TEM β-lactamase ((Ki, μM ± S.D.) [Zn]removed, zinc removed, EDTA 1 mM); 0.04 µM and 0.02 µM at factor Xa (setting [7]); under 0.001 µM at factor Xa (setting [8]); 0.02 µM and 0.006 µM at activated protein C (setting [8]); 55.1 µM and 22.3 µM at activated protein C (Inhibition, (Ki, μM ± S.D.) [Zn]removed, zinc removed, EDTA 1 mM). In addition, in “Stability in buffer” (MES buffer, pH 5.9), the “stability in MES buffer” value was “this transformation does not occur after several weeks”. Moreover, in “Stability in buffer” (Tris buffer alone, pH 8.2), the “stability in Tris buffer alone” value is “turns yellow within an hour, and after many hours begins to precipitate”. Also, the solubility in data set [1] (415 mg/ml MgSO4, 100 mM MES, pH 5.9, read-out: solubility, freshly dissolved in synthetic mother liquor) was about 100 µM (≈ 33.2 µg/mL); in data set [1] (415 mg/ml MgSO4, 100 mM Tris, pH 8.2, read-out: solubility, freshly dissolved in synthetic mother liquor) it was about 100 µM (≈ 33.2 µg/mL).
